# From patent US11701361B2, “p110-delta inhibitors treat and prevent autoimmunity while sparing the ability to mount an immune response to exogenous immunogens” (THE REGENTS OF THE UNIVERSITY OF COLORADO, priority 2018, dated 2023)
# Assays:
# [1] = system: PTEN^−/+×SHIP-1^−/+ B cells; assay: adoptive transfer of autoreactive PTEN-/+ x SHIP-1-/+ Ars/A1 B cells, loss of anergy; assay type: in vivo, mouse; conditions: for number of autoreactive ASCs/spleen: day 14
# From the text: Except where otherwise indicated, 6-16 week old mice were used in all experiments. Both male and female mice were used, but experiments were sex matched and both sexes gave identical results, with the exception of only female mice being used in the VH125.NOD experiments as female mice develop accelerated disease. hCD20-TamCre animals (Khalil, et al. Science 336: 1178-81) were intercrossed with mice carrying the rosa26-flox-STOP-YFP allele (Srinivas, et al., BMC Dev. Biol. 1:4), generating mice in which YFP is expressed in B cells upon Cre activation. These mice were crossed with Ars/A1 (Benschop, et al., Immunity 14: 33-43) transgenic mice to generate hCD20-TamCre×rosa26-flox-STOP-YFP×Ars/A1 mice. B cells from these mice will be referred to as WT Ars/A1. These mice were also crossed with SHIP-1^flox/flox mice (Karlsson, et al. J Exp Med 198: 333-40). hCD20-TamCre×rosa26-flox-STOP-YFP×Ars/A1 mice were also crossed to PTEN^flox/flox mice (Anzelon, et al., Nat Immunol 4: 287-94) and SHP-1^flox/flox mice to generate mice in which SHIP-1, PTEN and SHP-1 deletion can be induced in anergic B cells. hCD20-TamCre×rosa26-flox-STOP-YFP×PTEN^flox/flox×Ars/A1 were crossed to hCD20-TamCre×rosa26-flox-STOP-YFP×SHIP-1^flox/flox×Ars/A1 to generate hCD20-TamCre×rosa26-flox-STOP-YFPx PTEN^flox/wt×SHIP-1^flox/wt×Ars/A1 to allow for the double haploinsufficiency of both PTEN and SHIP-1 within B cells.
# 2 hours before adoptive transfer, C57BL/6 recipient mice received 200 rads irradiation. […] B cells from donor mice were isolated via depletion of CD43+ cells with anti-CD43-conjugated magnetic beads (MACS anti-mouse CD43; Miltenyi Biotec). Alternatively, CD4+ T cells were isolated via CD4 positive selection (MACS anti-mouse CD4 (L3T4) Miltenyi Biotec). Resultant populations were >97% pure based on flow cytometric analyses. Donor B cells were labeled with either CellTrace Violet (Molecular Probes) or CFSE (Molecular Probes) at 5 μM for 5 minutes at room temperature prior to transfer. Donor CD4 T cells were labeled with CFSE (Molecular Probes) at 5 μM for 5 minutes at room temperature prior to transfer. 1-2×10^6 donor cells in 200 μl PBS were adoptively transferred via IV injection. 24 hours post transfer, tamoxifen was administered to activate Cre. Tamoxifen (Sigma-Aldrich) was dissolved in 100% corn oil (Sigma-Aldrich) at 20 mg/ml. Recipient mice were injected IP with 100 μl (2 mg) on two consecutive days.
# Diet dose (DD) is calculated by multiplying the single daily dose (SD) by the body weight of a mouse (BW) and dividing that by the daily food intake (FI) [DD=(SD×BW)/FI].
# For VH125.NOD experiments animals are placed on control chow immediately after weaning.
# Spleens were mechanically disrupted, single-cell suspensions were generated, and red blood cells were lysed with ammonium chloride TRIS. Cells were resuspended in PBS containing 1% FBS and incubated with indicated antibodies. For analysis of cell surface markers, antibodies against the following molecules were used: B220-PE (BioLegend), B220-BV786 (BD Biosciences), B220-BV510 (BioLegend), CD4-BV711 (BioLegend), CD8-BV421 (BioLegend), CD138-PECy7 (BioLegend), CD69-BV786 (BD Biosciences), CD86-PerCPCy5.5 (BioLegend). After cell surface staining, the cells were fixed and permeabilized with Cytofix/Cytoperm (BD) per manufacturer's instructions and stained with Dylight650-E4 anti-Ars/A1 idiotype (produced and conjugated in our laboratory) OR HEL-650 (produced and conjugated in our laboratory) and Alexa Fluor 488-anti-GFP (rabbit polyclonal; Life Technologies). Events were collected on a CyAn ADP (Dako) and subsequent analysis using FlowJo software (Tree Star).
# For detection of IgM^a anti-Ars antibodies, microtiter plates were coated with 10 μg/ml Ars-BSA16 in PBS and blocked with 2 mg/ml BSA in PBS 0.05% Tween-20. For detection of IgM^a anti-HEL antibodies, microtiter plates were coated with 10 μg/ml HEL in PBS and blocked with 2 mg/ml BSA in PBS 0.05% Tween-20. […]
# [2] = system: splenic B cells from C57BL/6 mice; assay: BCR-mediated calcium flux in B cells; assay type: cell-based, mouse; conditions: 15 nM, 60 nM and 490 nM idelalisib added simultaneously with anti-Ig heavy and light chain F(ab′)2
# Description: For measurements of intracellular free calcium concentration ([Ca^2+]i), RBC-depleted single-cell suspended splenocytes were simultaneously stained with CD8-PE (BD Biosciences), CD4-APC (BioLegend) or B220-PE and loaded with Indo-1 acetoxymethyl (Molecular Probes), as described previously (Gauld, et al., Nat Immunol 6: 1160-1167). For analysis of ([Ca^2+]i), cells were suspended at 10×10^6 cells/ml in warm IMDM+2% FBS in a 500 ul volume. […] Mean relative ([Ca^2+]i) was monitored over time using an LSR Fortessa X-20 (BD) with analysis using FlowJo software.
# PLCγ = assay: phosphorylated signaling intermediaries after BCR stimulation: PLCγ; assay type: cell-based, mouse; conditions: all doses of inhibitor (15, 60, 490 nM), preincubation
# Description: Cells are then washed 2× in serum free IMDM, and stimulated with 5 μg/ml of F(ab′)2 rabbit anti-mouse anti-IgG (H&L; Invitrogen) or 10 μg/ml anti-CD3-biotin (BD Biosciences)+20 μg/ml streptavidin (Sigma-Aldrich) for 2 minutes. Signaling was stopped by addition of 20% PFA to a final concentration of 2%, incubated at 37° C. for 15 minutes and resuspended in 100% ice-cold MeOH (directly from −80° C.). Cells were then placed on ice for 30 minutes and placed at −20° C. for storage. For analysis, cells were stained with B220-BV786, CD4-BV711, CD8-BV421, and/or pAKT-Alexa Fluor 647 (BD Biosciences), pPLCγ-PE (BD Biosciences), pBTK-BV421 (BD Biosciences) pSyk/Zap70-PE (BD Biosciences) at room temperature for 1 hour. Cells were washed 3 times and samples were acquired in triplicate on an LSR Fortessa X-20 (BD) with analysis using FlowJo software.
# [3] = 0.9375 mg/kg, 3.75 mg/kg and 30 mg/kg chow, relative to vehicle control chow
smiles,measurement,setting,value
"CC[C@H](Nc1ncnc2nc[nH]c12)c1nc2cccc(F)c2c(=O)n1-c1ccccc1 [idelalisib, 5-fluoro-3-phenyl-2-[(1S)-1-(7H-purin-6-ylamino)propyl]-4(3H)-quinazolinone]",number of autoreactive ASCs/spleen,[1]; 0.9375 mg/kg and 3.75 mg/kg chow,significantly reduced
same,serum autoantibody (IgM^a anti-Ars),"[1]; 0.9375 mg/kg, 3.75 mg/kg and 30 mg/kg chow, day 14, relative to untreated controls",significantly decreased
same,plasmablast differentiation as measured by CD138 positivity,[1]; [3],significantly decreased
same,proliferation of transferred B cells,[1]; [3],significantly decreased
same,number of autoreactive ASCs/spleen,[1]; 30 mg/kg chow,undetected
same,total Ars/A1 idiotype+ YFP+ B cells in the spleens (recovery of transferred cells),"[1]; day 14 post transfer, regardless of treatment",no significant difference
same,calcium mobilization,[2],suppressed
same,phosphorylation of PLCγ,PLCγ,significantly reduced
